Experiment [1] deals with T1, juvenile hormone-binding protein (JHBP) (Bombyx mori, UniProt Q9U556).
T1 construct: gene hJHBP; recombinant mature JHBP
Description: crystal structure ([…] Å); competition with 3H-JH III (charcoal assay).

Experiment [2] concerns the target T1, juvenile hormone-binding protein (JHBP). As to the kind of experiment: radioligand competition with 3H-JH III (dextran-coated charcoal). (In general: Loss of bound radioactivity is the signal in a displacement assay; it reports binding, not function.)

The values below come from publication PMC3577830, “Crystal Structure of Silkworm Bombyx mori JHBP in Complex With 2-Methyl-2,4-Pentanediol: Plasticity of JH-Binding Pocket and Ligand-Induced Conformational Change of the Second Cavity in JHBP” (PLoS ONE, 2013).

Each structure is given as a SMILES string.

Usually IC50 stands for the concentration that inhibits the measured activity by half. Compound `CC(O)CC(C)(C)O` (racemic) [MPD, 2-methyl-2,4-pentanediol] showed an IC50 in experiment [1] of 160 µM.

`COC(C)(C)CCC[C@H](C)C/C=C/C(C)=C/C(=O)OC(C)C` (racemic) [methoprene] displayed a half-maximal inhibitory concentration (IC50) in experiment [2] of 35 µM.
